Test results as given in ChEMBL document CHEMBL3045600, “Synthesis and Fungicidal Activities of Phenoxyphenyl Alkoxyiminoacetamide Derivatives” (J Pestic Sci, 1998).

How the values were obtained:
Format in all cases: functional
[1] = tested on: Pseudoperonospora cubensis; assay: Fungicidal activity against Pseudoperonospora cubensis assessed as cucumber downy mildew disease control at 125 ppm foliar application 24 hr before inoculation on upper surface of leaf by preventive manner
[2] = tested on: Podosphaera fuliginea; assay: Fungicidal activity against Podosphaera fuliginea assessed as cucumber powdery mildew control under greenhouse at 31.3 ppm foliar application 24 hr after inoculation on upper surface of leaf at 23 +/- 2 degC by curative manner
[3] = tested on: Thanatephorus cucumeris; assay: Fungicidal activity against Thanatephorus cucumeris assessed as rice sheath blight disease control at 125 ppm foliar application for 24 hr before inoculation at 26 +- 2 measured after 5 days by preventive manner
[4] = tested on: Pseudoperonospora cubensis; assay: Fungicidal activity against Pseudoperonospora cubensis assessed as cucumber downy mildew disease control at 125 ppm foliar application 24 hr after inoculation on upper surface of leaf by curative manner
[5] = tested on: Podosphaera fuliginea; assay: Fungicidal activity against Podosphaera fuliginea assessed as cucumber powdery mildew control under greenhouse at 2 ppm foliar application 24 hr before inoculation on upper surface of leaf at 23 +/- 2 degC by preventive manner
[6] = tested on: Pseudoperonospora cubensis; assay: Fungicidal activity against Pseudoperonospora cubensis assessed as cucumber downy mildew disease control at 31.3 ppm foliar application 24 hr after inoculation on upper surface of leaf by curative manner
[7] = tested on: Botrytis cinerea; assay: Fungicidal activity against Botryotinia fuckeliana assessed as cucumber gray mold disease control at 125 ppm foliar application 24 hr after inoculation at 22 +/- 2 degC measured after 3 days by curative manner
[8] = tested on: Thanatephorus cucumeris; assay: Fungicidal activity against Thanatephorus cucumeris assessed as rice sheath blight disease control at 7.8 ppm foliar application for 24 hr before inoculation at 26 +- 2 measured after 5 days by preventive manner
[9] = tested on: Pyricularia oryzae; assay: Fungicidal activity against Magnaporthe oryzae assessed as rice blast disease control at 10 ppm submerged application measured after 7 days
[10] = tested on: Podosphaera fuliginea; assay: Fungicidal activity against Podosphaera fuliginea assessed as cucumber powdery mildew control under greenhouse at 7.8 ppm foliar application 24 hr before inoculation on upper surface of leaf at 23 +/- 2 degC by preventive manner
[11] = tested on: Podosphaera fuliginea; assay: Fungicidal activity against Podosphaera fuliginea assessed as cucumber powdery mildew control under greenhouse at 125 ppm foliar application 24 hr before inoculation on upper surface of leaf at 23 +/- 2 degC by preventive manner
[12] = tested on: Pseudoperonospora cubensis; assay: Fungicidal activity against Pseudoperonospora cubensis assessed as cucumber downy mildew disease control at 31.3 ppm foliar application 24 hr before inoculation on upper surface of leaf by preventive manner
[13] = tested on: Pyricularia oryzae; assay: Fungicidal activity against Magnaporthe oryzae assessed as rice blast disease control at 0.16 ppm submerged application measured after 7 days
[14] = tested on: Botrytis cinerea; assay: Fungicidal activity against Botryotinia fuckeliana assessed as cucumber gray mold disease control at 2 ppm foliar application 24 hr after inoculation at 22 +/- 2 degC measured after 3 days by curative manner
[15] = tested on: Pyricularia oryzae; assay: Fungicidal activity against Magnaporthe oryzae assessed as rice blast disease control at 2.5 ppm submerged application measured after 7 days
[16] = tested on: Podosphaera fuliginea; assay: Fungicidal activity against Podosphaera fuliginea assessed as cucumber powdery mildew control under greenhouse at 31.3 ppm foliar application 24 hr before inoculation on upper surface of leaf at 23 +/- 2 degC by preventive manner
[17] = tested on: Pseudoperonospora cubensis; assay: Fungicidal activity against Pseudoperonospora cubensis assessed as cucumber downy mildew disease control at 7.8 ppm foliar application 24 hr before inoculation on upper surface of leaf by preventive manner
[18] = tested on: Podosphaera fuliginea; assay: Fungicidal activity against Podosphaera fuliginea assessed as cucumber powdery mildew control under greenhouse at 125 ppm foliar application 24 hr after inoculation on upper surface of leaf at 23 +/- 2 degC by curative manner
[19] = tested on: Podosphaera fuliginea; assay: Fungicidal activity against Podosphaera fuliginea assessed as cucumber powdery mildew control under greenhouse at 2 ppm foliar application 24 hr after inoculation on upper surface of leaf at 23 +/- 2 degC by curative manner
[20] = tested on: Pseudoperonospora cubensis; assay: Fungicidal activity against Pseudoperonospora cubensis assessed as cucumber downy mildew disease control at 7.8 ppm foliar application 24 hr after inoculation on upper surface of leaf by curative manner
[21] = tested on: Botrytis cinerea; assay: Fungicidal activity against Botryotinia fuckeliana assessed as cucumber gray mold disease control at 7.8 ppm foliar application 24 hr after inoculation at 22 +/- 2 degC measured after 3 days by curative manner
[22] = tested on: Botrytis cinerea; assay: Fungicidal activity against Botryotinia fuckeliana assessed as cucumber gray mold disease control at 31.3 ppm foliar application 24 hr after inoculation at 22 +/- 2 degC measured after 3 days by curative manner
[23] = tested on: Thanatephorus cucumeris; assay: Fungicidal activity against Thanatephorus cucumeris assessed as rice sheath blight disease control at 2 ppm foliar application for 24 hr before inoculation at 26 +- 2 measured after 5 days by preventive manner
[24] = tested on: Podosphaera fuliginea; assay: Fungicidal activity against Podosphaera fuliginea assessed as cucumber powdery mildew control under greenhouse at 7.8 ppm foliar application 24 hr after inoculation on upper surface of leaf at 23 +/- 2 degC by curative manner
[25] = tested on: Pseudoperonospora cubensis; assay: Fungicidal activity against Pseudoperonospora cubensis assessed as cucumber downy mildew disease control at 2 ppm foliar application 24 hr after inoculation on upper surface of leaf by curative manner
[26] = tested on: Thanatephorus cucumeris; assay: Fungicidal activity against Thanatephorus cucumeris assessed as rice sheath blight disease control at 31.3 ppm foliar application for 24 hr before inoculation at 26 +- 2 measured after 5 days by preventive manner
[27] = tested on: Pyricularia oryzae; assay: Fungicidal activity against Magnaporthe oryzae assessed as rice blast disease control at 0.63 ppm submerged application measured after 7 days
[28] = tested on: Pseudoperonospora cubensis; assay: Fungicidal activity against Pseudoperonospora cubensis assessed as cucumber downy mildew disease control at 2 ppm foliar application 24 hr before inoculation on upper surface of leaf by preventive manner

CNC(=O)/C(=N/OC)c1ccccc1Oc1ccc(Cl)cc1
Activity [1]: 70% | Activity [2]: 50% | Activity [3]: 70% | Activity [4]: 50% | Activity [5]: 70% | Activity [6]: 50% | Activity [7]: 50% | Activity [8]: 70% | Activity [9]: 50% | Activity [10]: 70% | Activity [11]: 70% | Activity [12]: 70% | Activity [13]: 50% | Activity [14]: 50% | Activity [15]: 50% | Activity [16]: 70% | Activity [17]: 70% | Activity [18]: 50% | Activity [19]: 50% | Activity [20]: 50% | Activity [21]: 50% | Activity [22]: 50% | Activity [23]: 70% | Activity [24]: 50% | Activity [25]: 50% | Activity [26]: 70% | Activity [27]: 50% | Activity [28]: 70%

CNC(=O)/C(=N/OC)c1ccccc1Oc1ccc(I)cc1
Activity [1]: 70% | Activity [2]: 50% | Activity [3]: 70% | Activity [4]: 50% | Activity [5]: 70% | Activity [6]: 50% | Activity [7]: 50% | Activity [8]: 70% | Activity [9]: 50% | Activity [10]: 70% | Activity [11]: 70% | Activity [12]: 70% | Activity [13]: 50% | Activity [14]: 50% | Activity [15]: 50% | Activity [16]: 70% | Activity [17]: 70% | Activity [18]: 50% | Activity [19]: 50% | Activity [20]: 50% | Activity [21]: 50% | Activity [22]: 50% | Activity [23]: 70% | Activity [24]: 50% | Activity [25]: 50% | Activity [26]: 70% | Activity [27]: 50% | Activity [28]: 70%

CNC(=O)/C(=N/OC)c1ccccc1Oc1ccc(OC)cc1
Activity [1]: 70% | Activity [2]: 50% | Activity [3]: 70% | Activity [4]: 50% | Activity [5]: 70% | Activity [6]: 50% | Activity [7]: 50% | Activity [8]: 70% | Activity [9]: 50% | Activity [10]: 70% | Activity [11]: 70% | Activity [12]: 70% | Activity [13]: 50% | Activity [14]: 50% | Activity [15]: 50% | Activity [16]: 70% | Activity [17]: 70% | Activity [18]: 50% | Activity [19]: 50% | Activity [20]: 50% | Activity [21]: 50% | Activity [22]: 50% | Activity [23]: 70% | Activity [24]: 50% | Activity [25]: 50% | Activity [26]: 70% | Activity [27]: 50% | Activity [28]: 70%

CNC(=O)/C(=N/OC)c1ccccc1Oc1ccc(Br)cc1
Activity [1]: <70% | Activity [2]: 50% | Activity [3]: 70% | Activity [4]: <50% | Activity [5]: 70% | Activity [6]: <50% | Activity [7]: 50% | Activity [8]: 70% | Activity [9]: 50% | Activity [10]: 70% | Activity [11]: 70% | Activity [12]: <70% | Activity [13]: 50% | Activity [14]: 50% | Activity [15]: 50% | Activity [16]: 70% | Activity [17]: <70% | Activity [18]: 50% | Activity [19]: 50% | Activity [20]: <50% | Activity [21]: 50% | Activity [22]: 50% | Activity [23]: 70% | Activity [24]: 50% | Activity [25]: <50% | Activity [26]: 70% | Activity [27]: 50% | Activity [28]: <70%

CNC(=O)/C(=N/OC)c1ccccc1Oc1ccc(Cl)c(C)c1
Activity [1]: 70% | Activity [2]: 50% | Activity [3]: 70% | Activity [4]: 50% | Activity [5]: 70% | Activity [6]: 50% | Activity [7]: 50% | Activity [8]: 70% | Activity [9]: 50% | Activity [10]: 70% | Activity [11]: 70% | Activity [12]: 70% | Activity [13]: 50% | Activity [14]: 50% | Activity [15]: 50% | Activity [16]: 70% | Activity [17]: 70% | Activity [18]: 50% | Activity [19]: 50% | Activity [20]: 50% | Activity [21]: 50% | Activity [22]: 50% | Activity [23]: 70% | Activity [24]: 50% | Activity [25]: 50% | Activity [26]: 70% | Activity [27]: 50% | Activity [28]: 70%

CNC(=O)/C(=N/OC)c1ccccc1Oc1cccc(OCc2ccccc2)c1
Activity [1]: 70% | Activity [2]: 50% | Activity [3]: 70% | Activity [5]: 70% | Activity [7]: 50% | Activity [8]: 70% | Activity [9]: <50% | Activity [10]: 70% | Activity [11]: 70% | Activity [12]: 70% | Activity [13]: <50% | Activity [14]: 50% | Activity [15]: <50% | Activity [16]: 70% | Activity [17]: 70% | Activity [18]: 50% | Activity [19]: 50% | Activity [21]: 50% | Activity [22]: 50% | Activity [23]: 70% | Activity [24]: 50% | Activity [26]: 70% | Activity [27]: <50% | Activity [28]: 70%

CNC(=O)/C(=N/OC)c1ccccc1Oc1ccc(C)cc1
Activity [1]: <70% | Activity [2]: 50% | Activity [3]: 70% | Activity [5]: 70% | Activity [7]: 50% | Activity [8]: 70% | Activity [9]: 50% | Activity [10]: 70% | Activity [11]: 70% | Activity [12]: <70% | Activity [13]: 50% | Activity [14]: 50% | Activity [15]: 50% | Activity [16]: 70% | Activity [17]: <70% | Activity [18]: 50% | Activity [19]: 50% | Activity [21]: 50% | Activity [22]: 50% | Activity [23]: 70% | Activity [24]: 50% | Activity [26]: 70% | Activity [27]: 50% | Activity [28]: <70%

CNC(=O)/C(=N/OC)c1ccccc1Oc1ccc([N+](=O)[O-])cc1
Activity [1]: <70% | Activity [2]: 50% | Activity [3]: <70% | Activity [4]: <50% | Activity [5]: 70% | Activity [6]: <50% | Activity [7]: 50% | Activity [8]: <70% | Activity [10]: 70% | Activity [11]: 70% | Activity [12]: <70% | Activity [14]: 50% | Activity [16]: 70% | Activity [17]: <70% | Activity [18]: 50% | Activity [19]: 50% | Activity [20]: <50% | Activity [21]: 50% | Activity [22]: 50% | Activity [23]: <70% | Activity [24]: 50% | Activity [25]: <50% | Activity [26]: <70% | Activity [28]: <70%
